From ChEMBL document CHEMBL1201862, “PubChem BioAssay data set” (2004)
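How tested: cells in 96-well plates exposed to compound for 48 hours at five concentrations. The concentration for 50% growth inhibition is given as GI50.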 Active and inactive are the calls of the source. No stated cut-off is given here; in the data, active = GI50 up to about 1.1 µM and inactive = higher.

Tests used:
Assay in all cases: NCI tumour cell line growth inhibition, 48 h
HOP-18 = system: HOP-18
XF498 = system: XF498
KM-20L2 = system: KM-20L2
LXFL 529 = system: LXFL 529
RXF 631 = system: RXF 631
DMS-273 = system: DMS-273
SNB-78 = system: SNB-78
DMS-114 = system: DMS-114
DLD-1 = system: DLD-1

| SMILES | GI50 (HOP-18) | GI50 (XF498) | GI50 (KM-20L2) | GI50 (LXFL 529) | GI50 (RXF 631) | GI50 (DMS-273) | GI50 (SNB-78) | GI50 (DMS-114) | GI50 (DLD-1) |
| --- | --- | --- | --- | --- | --- | --- | --- | --- | --- |
| CNC(=O)OCc1c2ccncc2c(C)c2c1[nH]c1ccc(OC)cc12 | 0.254 µM (active) | 1.03 µM (active) | 0.227 µM (active) | 0.115 µM (active) | 0.675 µM (active) | 0.379 µM (active) | 0.119 µM (active) | 0.226 µM (active) |  |
| O=C(/C=C/c1ccccc1)/C=C/c1ccccc1 | 28.6 µM (inactive) |  | 22.1 µM (inactive) | 21.2 µM (inactive) | 32.8 µM (inactive) | 38.7 µM (inactive) | 92.9 µM (inactive) | 21.6 µM (inactive) | 15.1 µM (inactive) |
| CNS(=O)(=O)NNS(=O)(=O)c1ccccc1 | > 100 µM (inactive) | > 100 µM (inactive) | > 100 µM (inactive) | > 100 µM (inactive) |  | > 100 µM (inactive) |  | > 100 µM (inactive) | > 100 µM (inactive) |
| C[Si](C)(C)OC1CC(=O)OC1n1cc(F)c(=O)[nH]c1=O (stereo not given) | 23.2 µM (inactive) | 90.2 µM (inactive) | 16.2 µM (inactive) | 52.4 µM (inactive) | 14.6 µM (inactive) | 12.9 µM (inactive) |  | 27.2 µM (inactive) | 7.62 µM (inactive) |
| Cc1nc2c(s/c(=N\N)n2-c2ccccc2)c(=O)n1C |  | > 100 µM (inactive) | > 100 µM (inactive) | > 100 µM (inactive) |  | > 100 µM (inactive) | > 100 µM (inactive) | > 100 µM (inactive) |  |
| O=C(O)CNS(=O)(=O)c1ccc(NC(=O)c2cccc([N+](=O)[O-])c2)cc1 | > 100 µM (inactive) | > 100 µM (inactive) | > 100 µM (inactive) | > 100 µM (inactive) | > 100 µM (inactive) | > 100 µM (inactive) |  |  | > 100 µM (inactive) |
| C/C=C1\CN2CCc3c([nH]c4ccccc34)C2C=C1CCO (stereo not given) |  | 208 µM (inactive) | > 340 µM (inactive) | > 340 µM (inactive) | > 340 µM (inactive) | > 340 µM (inactive) |  | > 340 µM (inactive) | > 340 µM (inactive) |
| O=C1C(=O)C(Br)(Br)C(Br)=C1Br | 15.6 µM (inactive) |  | 15 µM (inactive) | 15.2 µM (inactive) | 37.9 µM (inactive) | 22.3 µM (inactive) |  | 18.8 µM (inactive) | 18.8 µM (inactive) |
| Cc1ccc(C)c(N2C(=O)C(=O)C(c3nc4ccccc4s3)/C(=N\c3cccc4c(=O)[nH][nH]c(=O)c34)C2=O)c1 (stereo not given) | > 100 µM (inactive) |  | > 100 µM (inactive) | > 100 µM (inactive) | > 100 µM (inactive) | > 100 µM (inactive) |  | > 100 µM (inactive) | > 100 µM (inactive) |
| C=C(CCCCC)CN1CCCC1[C@@](C)(O)CC(=O)OCC (stereo not given in full) | > 100 µM (inactive) | > 76.6 µM (inactive) | > 100 µM (inactive) | > 100 µM (inactive) |  | > 100 µM (inactive) | > 100 µM (inactive) | > 100 µM (inactive) | > 100 µM (inactive) |
| COc1ccc(C2=CN3CCC[C@H]3C=C2c2cc(O)c(OC)c(OC)c2)cc1OC | 0.00427 µM (active) |  | 0.00887 µM (active) | 0.00389 µM (active) |  | 0.00354 µM (active) | 0.00385 µM (active) | 0.00385 µM (active) | 0.00316 µM (active) |
| Cc1ccc(NC(=O)COC(=O)c2cccc3c(=O)c4ccccc4[nH]c23)cc1 | > 100 µM (inactive) | 41 µM (inactive) | 53.2 µM (inactive) | 32.1 µM (inactive) | 24.4 µM (inactive) | 23.6 µM (inactive) | 27.6 µM (inactive) | 34.2 µM (inactive) | 14.6 µM (inactive) |
| O=C(OCCOCCOC(=O)c1c[nH]cc1-c1ccccc1)c1c[nH]cc1-c1ccccc1 |  | 19.9 µM (inactive) | 21.9 µM (inactive) | 21.8 µM (inactive) |  | 15.9 µM (inactive) | 19.3 µM (inactive) | 13.8 µM (inactive) | 24.8 µM (inactive) |
| COC1OC(COS(=O)(=O)c2ccc(C)cc2)C(O)C(OS(=O)(=O)c2ccc(C)cc2)C1OS(=O)(=O)c1ccc(C)cc1 (stereo not given) | > 100 µM (inactive) |  | > 100 µM (inactive) | > 100 µM (inactive) | > 100 µM (inactive) | > 100 µM (inactive) | > 100 µM (inactive) | > 100 µM (inactive) | > 100 µM (inactive) |
| C=C1C(C)C2C(Cc3ccccc3)NC(=O)C23OC(=O)/C=C\CC(=O)CCC(C)C/C=C/C3C1O (stereo not given) | 0.326 µM (active) | 0.287 µM (active) | 3.66 µM (inactive) |  |  | 2.34 µM (inactive) | 0.36 µM (active) | 2.42 µM (inactive) | 1.18 µM (inactive) |
| CCOC(=O)NC(=O)c1cn(CCOCCOC(=O)NCCCCCCNC(=O)OCCOCCn2cc(C(=O)NC(=O)OCC)c(=O)[nH]c2=O)c(=O)[nH]c1=O | > 100 µM (inactive) |  | > 100 µM (inactive) | > 100 µM (inactive) | > 100 µM (inactive) | > 100 µM (inactive) | > 100 µM (inactive) | > 100 µM (inactive) | > 100 µM (inactive) |
| N#CNc1nc(N)c(-c2ccc(Cl)cc2)c(C(=O)Nc2nccs2)n1 | > 100 µM (inactive) | > 100 µM (inactive) | > 100 µM (inactive) | > 100 µM (inactive) |  | > 100 µM (inactive) | > 100 µM (inactive) | > 100 µM (inactive) | > 100 µM (inactive) |
| NS(=O)(=O)c1ccc(NC(=O)c2cccc3c(Nc4ccc(S(N)(=O)=O)cc4)c4ccccc4nc23)cc1 | > 100 µM (inactive) | 27.2 µM (inactive) | 67.1 µM (inactive) | 12.2 µM (inactive) | 3.48 µM (inactive) | 1.85 µM (inactive) | 29.8 µM (inactive) | 39.3 µM (inactive) | 24.7 µM (inactive) |
| Nc1nc(N)c(-c2ccc(Cl)cc2)c(CCC(=O)Nc2cccc(C(F)(F)F)c2)n1 | > 100 µM (inactive) | > 100 µM (inactive) | > 100 µM (inactive) | > 100 µM (inactive) | > 100 µM (inactive) | > 100 µM (inactive) | > 100 µM (inactive) | > 100 µM (inactive) | > 100 µM (inactive) |
| CCO/C([O-])=C(\C(=O)c1ccccc1)[n+]1c(C)n(C)c2ccccc21 | > 100 µM (inactive) |  | > 100 µM (inactive) | > 100 µM (inactive) |  | > 100 µM (inactive) | > 100 µM (inactive) | > 100 µM (inactive) | > 100 µM (inactive) |
| CC(=O)n1c2ccccc2c2nc3nc(Oc4ccc(C)cc4)c4ccccc4c3cc21 |  |  | > 100 µM (inactive) | 97.9 µM (inactive) |  | > 100 µM (inactive) | 42.5 µM (inactive) | > 100 µM (inactive) | > 100 µM (inactive) |
| COC(=O)c1ccc(Cl)cc1NC(=O)C1CCCCC1 |  |  | > 100 µM (inactive) | > 100 µM (inactive) |  | > 100 µM (inactive) | > 100 µM (inactive) | > 100 µM (inactive) |  |
| C1C[N+]23CCC[N+]2(C1)CCC3 (stereo not given) | > 100 µM (inactive) |  | > 100 µM (inactive) | > 100 µM (inactive) | > 100 µM (inactive) | > 100 µM (inactive) | > 100 µM (inactive) | > 100 µM (inactive) | > 100 µM (inactive) |
| O=C1CCC2(c3ccc(Cl)cc3)Nc3cc(Cl)ccc3N12 (stereo not given) | 1.25 µM (inactive) | 2.31 µM (inactive) | 15.2 µM (inactive) | 10.8 µM (inactive) | 14.7 µM (inactive) | 10.4 µM (inactive) | 15.3 µM (inactive) | 7.4 µM (inactive) | 5.75 µM (inactive) |
| Nc1ccc(C(=O)Nc2ccccc2N)cc1 [DINALINE] | 36.7 µM (inactive) | > 100 µM (inactive) |  | 22.5 µM (inactive) | 37.4 µM (inactive) | 59.7 µM (inactive) | > 100 µM (inactive) | 34.5 µM (inactive) | 44.3 µM (inactive) |
| CO[C@H]1[C@H](O)[C@H](O[C@H]2CC[C@@]3(C)[C@H](CC[C@@H]4[C@@H]3CC[C@]3(C)[C@@H](C5=CC(=O)OC5)CC[C@]43O)C2)O[C@@H](C)[C@@H]1O [NERIIFOLIN] | 0.000476 µM (active) |  | 0.00311 µM (active) | 0.00135 µM (active) |  | 0.000548 µM (active) | 0.000552 µM (active) | 0.000138 µM (active) | 0.00184 µM (active) |
